We go through 5 compounds from patent publication US20260021152A1, “USE OF MALE FLOWER EXTRACT OF EUCOMMIA ULMOIDES OLIVER IN PREPARATION OF FOOD OR MEDICAMENT FOR RESISTING MUSCLE AGING” (ZHEJIANG UNIVERSITY, priority 2022, published 2026).

In the first experiment the test system is mt-Keima HEK 293T cells. Put plainly: In vitro activation of mitophagy in mt-Keima 293T cells. The experiment is classed as cell-based, human. The settings on record: 10 μM, 6 hours. As to the method: The specific method was as follows:
293T cells were cultured and passaged in the normal way, and inoculated in a 24-well plate, with 0.5 mL inoculated in each well. The cell density was 5×10^4 cells/mL, and a total of 2.5×10^4 cells were inoculated. Before inoculation, the cells in the centrifuge tube were pipetted evenly to ensure that the cell density at the beginning and at the end was consistent. After standing for 5-10 minutes, the plate was gently placed in the incubator. After overnight incubation, the original complete medium was removed, and 0.3 mL of a complete medium solution containing 1.5×10^5 TU lentiviruses was added to each well. After incubation at 37° C. for 8 hours, 200 μL of the complete medium was added to each well. After 24 hours of transfection, the medium was replaced until the cell density reached 80-90%, and the cells were digested and passaged a T25 flask. […] The successfully transfected cells were screened using a complete medium containing 0.5 μg/mL of a puromycin hydrochloride solution, and maintained with 0.25 μg/mL of the solution.
The confocal dishes were inoculated with 1 mL per dish, with a cell density of 2×10^5 cells/mL. After standing for 5-10 minutes, the dishes were gently placed in the incubator. When the cells grew to 30-40%, the drug was administered. After treating mt-Keima cells with 10 μM different iridoid monomer ingredients from the male flowers of Eucommia ulmoides Oliver or 10 μM CCCP for 6 hours, the medium was replaced with a fresh complete medium, and then live-cell confocal observation was performed directly. Confocal parameters: the excitation wavelengths were 440 nm and 596 nm each, and the emission wavelength was 620 nm, observed by a 40× water immersion objective.
On to `O=C(O)C1=CO[C@@H](O[C@@H]2O[C@H](CO)[C@@H](O)[C@H](O)[C@H]2O)[C@@H]2C(CO)=CC[C@H]12` [geniposidic acid], for which the mitophagy activation result was “have mitophagy-activating activity”. Regarding “carbonyl cyanide ester-3-chlorophenylhydrazone [CCCP]”, the mitophagy activation result was “significantly induced the occurrence of mitophagy”.

Take `CC(=O)OCC1=C[C@@H]2OC(=O)C3=CO[C@@H](O[C@@H]4O[C@H](CO)[C@@H](O)[C@H](O)[C@H]4O)[C@H]1[C@@H]32` [asperuloside]: the mitophagy activation result is “had mitophagy-activating activity”. `COC(=O)C1=CO[C@@H](O[C@@H]2O[C@H](CO)[C@@H](O)[C@H](O)[C@H]2O)[C@@H]2C(CO)=CC[C@H]12` [geniposide]: the mitophagy activation entry is reported as “have mitophagy-activating activity”. Take `OCC1=C[C@@H](O)[C@@H]2C=CO[C@@H](O[C@@H]3O[C@H](CO)[C@@H](O)[C@H](O)[C@H]3O)[C@H]12` [aucubin]: the mitophagy activation result is recorded as “have mitophagy-activating activity”.

The same experiment, now with this note: 10 μM, 6 hours, same concentration.
In the case of `CC(=O)OCC1=C[C@@H]2OC(=O)C3=CO[C@@H](O[C@@H]4O[C@H](CO)[C@@H](O)[C@H](O)[C@H]4O)[C@H]1[C@@H]32` [asperuloside], the “comparison of the average fluorescence density ratio” value is reported as “better than that of the other three monomer ingredients”.
